Laboratory results from patent US20250270289A1, “SEQUENCE-DEFINED POLYMERS WITH ONE OR MORE AZIDES, METHODS OF MAKING, AND METHODS OF USE THEREOF” (Yale University, priority 2021, published 2025).
pEC50: −log10 of the molar value. Where two headings read alike, the source gives them in different places. Starred links: 1 amine or outer side, 2 acyl side, 3 side chain; linkers in the order of their positions; H or OH if unused. Non-standard residues stand in square brackets, D forms with d. Residues, ends and D or L forms follow the SMILES beside them. X1 = O=C([C@H](Cc1ccc(NP(=O)(O)O)cc1)N[*:1])[*:2]

Legend:
pAcFRS.1.t1 synthetase = molecular target: T1, pAcFRS.1.t1 synthetase (Methanocaldococcus jannaschii, UniProt Q57834, A167D/D158G/D286R/I159C/L162R/R257G/Y32L); assay: In vitro tRNA charging assay; format: biochemical; settings: purified pAcFRS.1.t1, 1 mM amino acid
T1 construct: His; made in house
T1 sequence (Q57834 whole entry Y32L/D158G/I159C/L162R/A167D/R257G/D286R): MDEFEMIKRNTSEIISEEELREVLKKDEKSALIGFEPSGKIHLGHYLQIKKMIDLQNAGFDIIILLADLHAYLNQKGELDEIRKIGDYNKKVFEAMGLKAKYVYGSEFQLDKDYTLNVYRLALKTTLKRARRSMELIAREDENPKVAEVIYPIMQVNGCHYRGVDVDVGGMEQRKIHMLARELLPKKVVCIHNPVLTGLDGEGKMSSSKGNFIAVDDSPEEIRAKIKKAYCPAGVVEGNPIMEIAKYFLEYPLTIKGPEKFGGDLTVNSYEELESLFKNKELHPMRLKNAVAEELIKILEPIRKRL
Procedure: The pAcFRS.1.t1 synthetase was His-purified, and stored in 50 mM KCl, 50 mM HEPES-KOH at pH 7.5, 10% glycerol. The cognate tRNA was in vitro transcribed (IVT) from dsDNA template containing a T7 promoter, hammerhead ribozyme and tRNA, as described previously(Fechter et al., 1998). The IVT buffer consists of 40 mM Tris-HCl at pH8.0, 0.01% Triton X, 30 mM MgCl2, 2 mM Spermidine, 1 mM DTT. For a 100 μL reaction, 4 mM riboNTPs (N0466S, NEB), 100U T7 (M0251S, NEB) and 1-2 μM dsDNA template were added. The reaction was incubated at 37° C. for 3 h. Afterwards, the sample was diluted 5× with reaction buffer, and heated to 65C for 1 h to promote hammerhead cleavage. After a phenol:chloroform extraction, the cleaved tRNA was separated from other fragments using a TBE-Urea gel. Finally, the tRNA was refolded by slowly cooling the sample from 95° C. to r.t. At 65° C., MgCl2 was added to a final concentration of 10 mM.
aaRS specificity was measured using in vitro charging. The reaction composition was 150 mM HEPES-KOH at pH 7.5, 10 mM MgCl2, 2.5 mM DTT, 0.2 mg/mL BSA, 2 mM ATP, 1 mM amino acid, 500 nM aaRS and 750 nM tRNA. The reactions were incubated at 37° C. for 30 min. Afterwards, they were quenched using loading buffer (0.1 M sodium acetate pH 5.0, 8 M urea, 0.05% bromophenol blue, 0.05% xylene cyanol FF). The samples were then analyzed on an acid-urea PAGE gel (8 M urea, 0.1 M sodium acetate at pH 5.2) (Varshney et al., 1991), that was prerun in running buffer (0.1 M NaOAc at pH 5.2) for 20 min at 13 W. After sample loading, the gel was run at a constant 13 W for 20 h. The tRNA was visualized with ethidium bromide staining.

[1] = Reduction of pAzF to pAF under purification pH and temperatures (HRMS); format: physicochemical; settings: pH 6.6, 7.2, 7.9; 4, 20, 34 or 80° C.
Description: High-resolution mass spectrometry (HRMS) data was collected using an Agilent iFunnel 6550 Quadrupole Time-Of-Flight (QTOF) MS with an electrospray ionization (ESI) source, coupled to an Agilent Infinity 1290 ultra-high-performance liquid chromatography (UHPLC) system with an Agilent Eclipse Plus C18 1.8 μm, 4.6×50 mm column. Solvents used were (solvent A) water 0.1% formic acid and (solvent B) CH3CN 0.1% formic acid. Mass spectra were gathered using Dual Agilent Jet Stream (AJS) ESI in positive mode. The mass range was set from 110 to 1700 m/z with a scan speed of 3 scan/second. The capillary and nozzle voltages were set to 5500 and 2000 V, respectively. […] MS data were acquired with MassHunter Workstation Data Acquistion (Version B.06.01, Agilent Technologies) and analyzed using MassHunter Qualitative Analysis (Version B.07.00, Agilent Technologies). Protein quantification was performed using peptide standards with the same sequence as the digested peptides, or based on calibration curves produced using dilutions series of peptide(1TAG)-GFP.
Experiments were designed to assess if reduction of pAzF residues occurs during protein purification or MS analysis. Experiments evaluated if pAzF is reduced over a range of pH (6.6, 7.2, 7.9) and temperatures (4, 20, 34, or 80° C.) used during sample purification, and found minimal (<1%) reduction to pAF under all conditions. […]

Src SH2 domain = Src SH2 domain (Homo sapiens, UniProt P12931); assay: Fluorescence polarization assay, direct binding and competition with FITC-pTyrEEI
Procedure: They were then induced with 1 mM IPTG and grown overnight. Cells were pelleted prior to freezing at −80° C. Pellets were resuspended in lysis buffer (50 mM Tris, pH 8.0, 500 mM NaCl, 0.5 mM EDTA, 0.5 mM EGTA, 10% glycerol) and then sonicated. Clarified lysate was incubated with Glutathione Sepharose 4B resin, washed (50 mM Tris, pH 8.0, 50 mM NaCl, 10% glycerol) and eluted from resin in elution buffer (20 mM reduced glutathione, 50 mM Tris, pH 8.0, 50 mM NaCl, 10% glycerol, pH 8.0). […] Protein was stored at −80° C. […] Kd was established using one-site binding model in GraphPad Prism version 7 for Mac (GraphPad Software, La Jolla, CA, USA). Unlabeled peptides were diluted to 100 μM in assay buffer. […] A full-dissociation control was established with 10 nM peptide in assay buffer. […] EC50 for percent inhibition was estimated by plotting log10[agonist] vs. response and fitting a four-parameter variable slope fit in GraphPad Prism.

Nc1ccc(C[C@H](N)C(=O)O)cc1 [pAF, para-amino-phenylalanine]
charging onto the cognate tRNA (pAcFRS.1.t1 synthetase): no charging

[N-]=[N+]=Nc1ccc(C[C@H](N)C(=O)O)cc1 [pAzF, para-azido-phenylalanine]
charging onto the cognate tRNA (pAcFRS.1.t1 synthetase): charged
reduction to pAF [1]: < 1%

CC[C@H](C)[C@H](NC(=O)[C@@H]1CCCN1C(=O)[C@@H](NC(=O)[C@H](CCC(=O)O)NC(=O)[C@H](CCC(=O)O)NC(=O)[C@H](Cc1ccc(NP(=O)(O)O)cc1)NC(=O)[C@H](CCC(N)=O)NC(=O)[C@@H]1CCCN1C(=O)[C@@H](N)CCC(=O)O)[C@@H](C)CC)C(=O)N[C@@H](Cc1ccc(O)cc1)C(=O)N[C@@H](CC(C)C)C(=O)O [pnY peptide] (H-EPQ[X1]EEIPIYL-OH; N-terminus and C-terminus assumed)
pEC50 (Src SH2 domain): 4.89
Decrease in binding affinity with SH2 (Src SH2 domain; pnY peptide EC50 compared with […], Src SH2): 17 fold

N[C@@H](Cc1ccc(O)cc1)C(=O)O [tyrosine]
charging onto the cognate tRNA (pAcFRS.1.t1 synthetase): no charging

EPQYEEIPIYL [Tyr peptide, reference compound]
EC50 (Src SH2 domain; competition with FITC-labeled pTyr peptide): No increase in unbound FITC-pTyr peptide
